# “And” between values parts separate entries of the source, which are not always exact repeats. Identical values can stand only once.
# Key:
# [1] = Pharmacokinetic evaluation after intravenous injection or intragastric administration, plasma LC-MS/MS; format: in vivo, SD rats
# Text: After the compounds were given to SD rats by intravenous injection or intragastric administration, concentrations of related compounds in plasma were detected by an LC-MS/MS method, and pharmacokinetics and absolute bioavailability of the compounds prepared in Embodiments 13 and 14 in the rats were preliminarily evaluated.
# 2. Line: Sprague Dawley rats, sex: male, weight: 200 g to 250 g
# Pharmacokinetic characteristics of rodents after intravenous injection and oral administration of the compounds were tested by a standard scheme. In the experiment, a candidate compound was prepared into a clear solution, and given to the rats by single intravenous injection and intragastric administration. A solvent for intravenous injection was a certain proportion of N,N-dimethylacetamide (DMA) and 10% Solutol HS15 solution, and a solvent for oral administration was a certain proportion of sodium carboxymethyl cellulose (CMC) suspension. 5 minutes, 15 minutes, 30 minutes, 1 hour, 2 hours, 4 hours, 6 hours, 8 hours, 10 hours and 24 hours after drug administration, blood samples of the animals were respectively collected into K2EDTA anticoagulation tubes, which were temporarily stored on ice until centrifugation.
# [2] = Subacute toxicity test, 14 consecutive days; format: in vivo; settings: SD rats, 10 mg/kg once a day for 14 consecutive days, in words
# Text: A proper amount of the compound in Embodiment 13 and a proper amount of the compound in Embodiment 14 were weighed by a balance and respectively placed into proper glass bottles, then DMSO, Solutol HS-15 and 0.9% physiological saline (in a ratio of v: v: v = 5%: 10%: 85%) were sequentially added into the glass bottles, and vortexed and stirred, and a drug dissolution condition was continuously concerned in the stirring process until the compounds were completely dissolved/suspended. Finally, drug solutions of the compound in Embodiment 13 and the compound in Embodiment 14 with a concentration of 0.67 mg/mL were prepared for current use.
# An animal room was well ventilated, equipped with an air-conditioner, kept at a temperature of 20°C and 25°C and a humidity of 40% to 70%, and in light and dark conditions for 12 hours respectively, and the animals could eat and drink freely. SD rats with good physical signs could be selected for this experiment after being adaptively fed for at least 3 days before administration. Table 23 Source and number of experimental animals
# Any operation on the experimental animals in this experiment met the requirements of the "Regulations for the Administration of Affairs Concerning Experimental Animals" issued by the Ministry of Science and Technology of the People's Republic of China. In this experiment, a solvent control group, an administration group of compound in Embodiment 13 and an administration group of compound in Embodiment 14 were set up. Administration dosages of the administration group of compound in Embodiment 13 and the administration group of compound in Embodiment 14 were (10 mg/kg) once a day for 14 consecutive days, while the same amount of blank solvent was given to the blank control group, and administration volumes were all 15 mL/kg. After each administration, symptoms and degrees of toxic reaction of the animals were observed. Recovery observation was carried out for 7 days after the last administration. […]
# During the experiment, experimenters and veterinarians should observe physical signs and health conditions of the experimental animals continuously. Any abnormal manifestations of the animals, such as pain, depression and decreased activity should be recorded in original records of the experiment. […]
# During the experiment, all animals were observed beside cages at least twice a day, and observed continuously for 2 hours after the drug administration. During the drug administration, if the animals had serious side effects or died, observation results should be recorded in a corresponding form. […]
# The animals should be weighed before daily drug administration for 14 consecutive days, and the weights were recorded in a corresponding form. Food intakes of the experimental animals were detected during the experiment. […]
# EPO (erythropoietin) [3] = assay: Pharmacological evaluation: influence of continuous administration on EPO level; format: in vivo, SD rats; settings: for EPO levels in serum of the rats: after 14 days of administration; for EPO levels in plasma of the rats: after administration, compared with the group of positive drug Enarodustat; for EPO level after 14 days of administration: individual rats 1-6; for EPO level after 14 days of administration / EPO level after 14 days of administration, Mean: 0.3 mg/mL, 10 mL/kg, once a day for 14 consecutive days, blood 4 hours after the drug on the 14th day, 2904.6 pg/mL was an upper limit of measurement; for EPO level after 14 days of administration, Mean: mean of 6 rats
# Experimental: This experiment was intended to evaluate an influence of continuous administration of the compounds prepared in Embodiments 12, 13 and 14 on EPO (erythropoietin) in SD rats.
# • Line: SD (Sprague Dawley) • Weeks of age and weight: 8 weeks, weight 200 g to 220 g • Sex: male • Animal source: Beijing Vital River Laboratory Animal Technology Co., Ltd.
# • Positive drug: Enarodustat • Description: commercialized drugs approved for marketing in Japan • Specification and content: 2 mg JTZ-951(Enarodustat), 140 capsules/box
# After a week of adaptive feeding, SD rats were randomly divided into 3 groups, 6 rats in each group, which were namely a blank group, a positive drug group (Enarodustat) and a group of compound in Embodiment 12. An Enarodustat tablet was crushed by a mortar, then quantitatively added with 0.5% methyl cellulose, and magnetically stirred and mixed evenly; and the compound prepared in Embodiment 12 was weighed, then quantitatively added with 0.5% methyl cellulose, and magnetically stirred and mixed evenly. […] The drug was given once a day for 14 consecutive days, and blood was taken to measure an EPO level 4 hours after the drug was given on the 14th day.
# [4] = tested on: human hepatocarcinoma cell line Hep3B; assay: In-vitro erythropoietin (EPO)-inducing activity experiment (EPO ELISA, OD450); format: cell-based; settings: Hep3B cells, incubated 24 hours at 37°C
# Experimental: In-vitro erythropoietin (EPO)-inducing activities of the compounds in Embodiments 10 to 12 were evaluated by using a human hepatocarcinoma cell line Hep3B (ATCC). Hep3B cells were cultured in an EMEM medium (Eagle's Minimum Essential Medium) at 37°C in the presence of 10% fetal bovine serum (FBS). Experimental steps were as follows: • (1) Cell preparation: the cells were inoculated in a 96-well plate, and cell plating was carried out according to an amount of 100 µL per well based on 2*10~4 per well. • (2) Preparation of compound concentration gradient: 100 µM, 20 µM, 2-parallel well detection. A solution with 200 times final concentration was prepared in a 96-well plate, the compound was diluted 200/3 times by using a cell culture medium, and then 50 µL of the compound was sucked for drug administration to the cells. 50 µL of DMSO-containing culture solution was added into a negative control well to make a final concentration contain 5 ‰ DMSO, and 50 µL of positive compound with the highest concentration was added into a positive control well to incubate the cells at 37°C for 24 hours. • (3) The reaction plate was washed twice with 1X Wash Buffer according to about 400 µL per well. • (4) 100 µL of diluted standard (comprising a standard blank control) was added into an appropriate well. • (5) 50 µL of sample and 50 µL of Sample Diluent were added into a sample well. • (6) 50 µL of 1X Biotin Conjugated Antibody were added into all wells to incubate the cells at room temperature for 1 hour. • (7) The reaction plate was washed with 1X Wash Buffer for 6 times according to about 400 µL per well. • (8) 100 µL of 1X Streptavidin-HRP was added in to each well to incubate the cells at room temperature for 15 minutes. • (9) The reaction plate was washed with 1X Wash Buffer for 6 times according to about 400 µL per well. • (10) 100 µL of TMB Substrate Solution was added into each well to incubate the cells at room temperature for 10 minutes. • (11) 100 µL of Stop Solution was added into each well. • (12) OD450 was read by EnSight.
# The EPO-inducing activities of the compounds were expressed as the concentration for 50% of maximal effect (EC50).
# PHD2 enzyme = molecular target: T1, PHD2 enzyme (Homo sapiens, UniProt Q9GZT9); assay: Detection of PHD2 enzyme activity inhibition (FITC-HIF1α tracer, mP read-out); format: biochemical; settings: test concentration from 10 µM, diluted 3 times into 10 concentrations; read-out: IC50
# T1 construct: purchased Active motif
# Experimental: (1) A 1×Assay buffer was prepared. […] 100 nL of 100% DMSO was added into a negative control well and a positive control well respectively. (3) An enzyme solution with 2 times final concentration was prepared with the 1×Assay buffer. (4) 5 µL of the enzyme solution with 2 times final concentration was added into a compound well and the positive control well respectively. (5) 5 µL of the 1 ×Assay buffer was added into the negative control well. (6) The 384-well plate was centrifuged at 1000 rpm for 30 seconds, oscillated and mixed evenly, and then incubated for 15 minutes. (7) A tracer solution with 2 times final concentration was prepared with the 1×Assay buffer, and 5.0 µL of the tracer solution with 2 times final concentration was added to start the reaction.
# EPO (erythropoietin) [5] = assay: Pharmacological evaluation: influence of continuous administration on EPO level; format: in vivo, SD rats; settings: SD rat, continuous chronic administration, in words
# [6] = SD rats, in words, compared with Enarodustat in the table
# [7] = male SD rats, route and dose not given
# T1 sequence (Q9GZT9 whole entry, species assumed): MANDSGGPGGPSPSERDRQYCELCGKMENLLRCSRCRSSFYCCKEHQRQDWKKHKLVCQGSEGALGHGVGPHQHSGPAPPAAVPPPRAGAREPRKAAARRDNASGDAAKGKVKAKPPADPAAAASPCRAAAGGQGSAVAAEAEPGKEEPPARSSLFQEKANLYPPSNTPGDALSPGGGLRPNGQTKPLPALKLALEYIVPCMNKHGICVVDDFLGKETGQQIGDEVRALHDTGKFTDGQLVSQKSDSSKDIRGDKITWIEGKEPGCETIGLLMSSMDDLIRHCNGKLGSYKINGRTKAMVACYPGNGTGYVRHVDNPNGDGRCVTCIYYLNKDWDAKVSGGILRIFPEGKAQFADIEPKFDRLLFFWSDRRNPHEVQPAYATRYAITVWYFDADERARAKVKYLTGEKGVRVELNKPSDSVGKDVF
SMILES,"half-lives [1, 6]","in-vivo exposure [1, 6]","Bioavailability F ([1]; male SD rats, intragastric vs intravenous) [%]","Concentration integral AUC [1, 7] [ng·h/mL]","Half-life period T1/2 [1, 7] [h]",toxicities ([2]; compared with Enarodustat),gastrointestinal findings [2],EPO levels in serum of the rats (EPO (erythropoietin) [3]; in words),EPO levels in plasma of the rats (EPO (erythropoietin) [3]; in words),EPO level after 14 days of administration (EPO (erythropoietin) [3]),"EPO level after 14 days of administration, Mean (EPO (erythropoietin) [3]) [pg/mL]",EC50 [4] [µM],"EPO level (EPO (erythropoietin) [3]; SD rat, continuous chronic administration, in words)",IC50 (PHD2 enzyme) [µM],"EC50 ([4]; Homo sapiens, Hep3B, 24 h) [µM]",hemoglobin level (EPO (erythropoietin) [5])
"O=C(O)CNC(=O)c1c(O)cc(C2CCc3ccccc3C2)n2ncnc12 (single isomer, unassigned) [Compound in Embodiment 14, [(7-hydroxy-5-(1,2,3,4-tetrahydronaphthalene-2-yl)-[1,2,4]triazolo[1,5-a]pyridine-8-carbonyl)amino]acetic acid]",obviously longer,higher,31.3,15740,2.43,lower than that of Enarodustat,"no obvious gastrointestinal necrosis, and bleeding spots or flatulence in a black stomach part",increased significantly,significantly higher,2279.1 pg/mL and 2095.6 pg/mL and 1982.7 pg/mL and 1943.6 pg/mL and 2038.9 pg/mL and 2137.6 pg/mL,2079.6,4.16,–,–,–,–
"O=C(O)CNC(=O)c1c(O)cc(C2CCc3ccccc3C2)n2ncnc12 (centres unmarked) [Compound in Embodiment 12, [(7-hydroxy-5-(1,2,3,4-tetrahydronaphthalene-2-yl)-[1,2,4]triazolo[1,5-a]pyridine-8-carbonyl)amino]acetic acid]",–,–,–,–,–,–,–,increased significantly,significantly higher,2649.3 pg/mL and ≥ 2904.6 pg/mL (4×) and 2882.6 pg/mL,2858.4,–,significantly increase,0.0343,6.79,significantly increase
